# Test results from patent US9986723B2, “Screen and use of therapeutics for pancreatic ductal adenocarcinoma” (The Board of Regents of the University of Texas System, priority 2014, dated 2018).
# Experiments:
# Panc-1 tumors = test: Low dose warfarin in drinking water, orthotopic human tumor xenograft; assay type: in vivo, mouse
# Experimental: (FIG. 23A) Primary tumor burden after therapy with warfarin. Therapy was initiated when implanted tumors were visible by ultrasound (˜10 mm^3) and consisted of control (normal drinking water) or warfarin, administered in the drinking water at 0.5 mg/L (immunocompetent mice: Pan02 (n=4, control; 3, warfarin), KIC (n=10, control; 8, warfarin)) or 1 mg/L (Panc-1 (n=10, control; 8, warfarin), AsPC-1 (n=8, control; 6, warfarin), Capan-1 (n=10, control; 7, warfarin)) and continued for 2-4 weeks until control mice were moribund. Therapy in KIC mice was initiated at 3 weeks of age and continued for 4 weeks. (FIG. 23B) Metastases were determined grossly upon sacrifice and confirmed by histological evaluation of the liver. […] Incidence of metastasis is also indicated. […] Tumor volume determined by serial ultrasound. […] Therapy with mAb 10C9 (250 μg 2×/week) was initiated when tumors were established as above and persisted for 4 weeks. […] Error bars indicate s.e.m.
# (FIG. 24A) HEK293 cells engineered to stably express recombinant Gas6 were grown in the presence of Vitamin K or Vitamin K+warfarin. Gas6 levels and γ-carboxylation were assayed by immunoblotting conditioned media. Conditioned media from untransfected HEK293 cells was used as a negative control. (FIG. 24B) Panc1 cells were grown overnight in media with 1% serum with no additions (NT), warfarin (2 μM) or BGB324 (2 μM). Lysates were probed for total Axl (tAxl) and phosphorylated Axl (pAxl). (FIG. 24C) Panc1 cells were grown in the presence of control media, Vitamin K, warfarin or warfarin+Vitamin K. The level of phosphorylated Axl (pAXL, red) was determined by immunofluorescence. (FIG. 24D) Panc1 cells were grown overnight in media with 1% serum with no additions (control), warfarin (1 μM), Gas6 (1.3 nM) or Gas6+warfarin. Lysates were probed for phosphorylated Akt (pAkt) and actin. (FIG. 24E) Lysates from Panc1 tumors harvested from mice treated with control or warfarin were probed for expression of tAxl, pAxl, actin, pAKT, tAKT, and cleaved Parp. (FIG. 24F) The effect of warfarin on cell migration was assessed by a ‘scratch’ assay. Monolayers of the indicted cells were wounded with a pipet tip. The cells were incubated in media containing 2% serum+/−warfarin (2 μM) or media containing 2% serum+Gas6 (1.3 nM)+/−warfarin.
# FIGS. 26A-C. […] (FIG. 26A) the expression level of pAxl, Zeb1 and nuclear β-catenin in Panc1 cells in vitro was measured by immunofluorescence under normal culture conditions or after growth on collagen matrix and treatment with TGF-β (20 ng/ml) to induce epithelial to mesenchymal transition, with or without warfarin (2 μM). p-Axl was normalized to total Axl area. (FIG. 26B) Panc1 cells were treated with either SFM, recombinant Gas 6 (100 ng/ml) or Gas6 following pretreatment with 10C9 (mAb anti-Axl). Transition to a mesenchymal phenotype was characterized by changes in vimentin and nuclear Zeb1 expression determined by immunofluoresence. […] (FIG. 26C) Paraffin embedded sections of Panc-1 tumors were analyzed by immunofluorescence for markers of EMT.
# [1] = test system: orthotopic C5LM2 or Mia PaCa-2 tumors; test: Gemcitabine combinations in mice bearing established orthotopic tumors; assay type: in vivo, mouse; conditions: combined with gemcitabine
# Description: Animal studies. All animals were housed in a pathogen-free facility with 24-hour access to food and water. Experiments were approved by, and conducted in accordance with, an IACUC approved protocol at UT Southwestern. LSL-Kras^G12D; Cdkn2a^lox/lox; p48^Cre (KIC) mice were generated as previously described (Ostapoff et al., 2014). Four- to 6-week-old female NOD/SCID and C57/B16 mice were obtained from an on campus supplier. A total of 1×10^6 AsPc-1, Panc-1, Mia Paca2, Capan-1, C5LM2, Mia shLuc and Mia shAxl or 5×10^5 Pan02 cells, were injected orthotopically as described (Ostapoff et al., 2014). Mice with established tumors, as determined by sonography were randomized to receive normal drinking water or water containing 1 mg/L (˜3.0 μM) warfarin for experiments in immunocompromised mice and 0.5 mg/L (˜1.5 μM) in experiments in immunocompetent animals with or without gemcitabine 25 mg/kg twice weekly depending on experimental design.
# [2] = tumor lysates, low dose warfarin
# [3] = tumor sections, low dose warfarin
structure (smiles),measurement,setting,value
CC(=O)CC(c1ccccc1)c1c(O)c2ccccc2oc1=O (racemic) [Warfarin],intratumoral microvessel density,"Panc-1 tumors; Endomucin, low dose warfarin",reduced
same,expression of vimentin and E-cadherin in tumors,"Panc-1 tumors; immunofluorescence, low dose warfarin",reduced expression of vimentin and elevated the expression of E-cadherin
same,level of cleaved Parp,Panc-1 tumors; [2],increased
same,level of pAxl and pAkt in tumors,Panc-1 tumors; [2],substantially suppressed
same,cleaved caspase 3 and tumor necrosis,Panc-1 tumors; [3],elevated
same,expression of phosphorylated histone H3 (proliferation),Panc-1 tumors; [3],decreased
same,primary tumor growth,Panc-1 tumors; warfarin 1 mg/L drinking water,little effect
same,augmentation of gemcitabine reduction of primary tumor growth and metastatic control,[1],augmented gemcitabine reduction of primary tumor growth
